This passage reports IC50 and Selectivity results from ChEMBL document CHEMBL1138698, “Ketoamide-based inhibitors of cysteine protease, cathepsin K: P3 modifications” (J Med Chem, 2004).

For one experiment, the target named is T1, Cathepsin K (Homo sapiens, UniProt P43235).
T1 sequence (P43235 whole entry): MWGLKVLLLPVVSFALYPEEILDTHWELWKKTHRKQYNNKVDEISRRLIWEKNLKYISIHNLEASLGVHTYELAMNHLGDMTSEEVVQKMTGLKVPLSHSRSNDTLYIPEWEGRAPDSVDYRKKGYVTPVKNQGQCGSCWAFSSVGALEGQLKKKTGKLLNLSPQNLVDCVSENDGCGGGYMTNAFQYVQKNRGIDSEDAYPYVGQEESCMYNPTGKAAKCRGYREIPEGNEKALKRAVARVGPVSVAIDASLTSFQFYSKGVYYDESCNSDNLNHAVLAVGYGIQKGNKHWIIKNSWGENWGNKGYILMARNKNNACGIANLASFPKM
Put plainly: Inhibitory potency against human Cathepsin K.

The target of experiment [1] is Cathepsin (V and K) (Homo sapiens) (UniProt P43235+O60911). Description: Selectivity for human Cathepsins V and K. The format is protein assay.
Experiment [2] addresses Cathepsin (H and K) (Homo sapiens) (UniProt P09668+P43235). Description: Selectivity for human Cathepsins H and K. The format is protein assay.
The target of experiment [3] is Cathepsin (S and K) (Homo sapiens) (UniProt P25774+P43235). Description: Selectivity for human Cathepsins S and K. The format is protein assay.
The target of experiment [4] is Cathepsin (B and K) (Homo sapiens) (UniProt P43235+P07858). Description: Selectivity for human Cathepsins B and K. The format is protein assay.
For experiment [5], the target named is Cathepsin (L and K) (Homo sapiens) (UniProt P43235+P07711). Put plainly: Selectivity for human Cathepsins L and K. The format is protein assay.
Chain of Cathepsin (L and K) (Homo sapiens) (P07711 whole entry, looked up, one chain of several): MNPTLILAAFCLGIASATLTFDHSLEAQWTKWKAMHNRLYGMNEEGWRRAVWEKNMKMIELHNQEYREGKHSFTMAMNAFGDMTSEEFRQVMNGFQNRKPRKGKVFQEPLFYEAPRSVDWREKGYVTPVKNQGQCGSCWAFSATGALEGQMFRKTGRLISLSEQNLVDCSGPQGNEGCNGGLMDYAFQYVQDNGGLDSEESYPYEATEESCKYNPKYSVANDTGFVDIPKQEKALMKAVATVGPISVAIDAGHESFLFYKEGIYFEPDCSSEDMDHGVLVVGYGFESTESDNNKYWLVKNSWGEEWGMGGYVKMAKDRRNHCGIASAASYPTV

Chain of Cathepsin (V and K) (Homo sapiens) (O60911 whole entry, looked up, one chain of several): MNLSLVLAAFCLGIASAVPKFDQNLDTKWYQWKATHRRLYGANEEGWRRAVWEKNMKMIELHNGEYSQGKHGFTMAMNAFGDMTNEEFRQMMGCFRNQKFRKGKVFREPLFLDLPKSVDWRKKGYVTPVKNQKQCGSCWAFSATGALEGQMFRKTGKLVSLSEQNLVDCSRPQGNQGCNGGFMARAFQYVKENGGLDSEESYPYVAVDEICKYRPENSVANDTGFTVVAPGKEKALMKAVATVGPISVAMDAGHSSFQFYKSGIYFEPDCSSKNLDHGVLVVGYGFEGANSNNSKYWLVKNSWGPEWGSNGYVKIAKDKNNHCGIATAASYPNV
Chain of Cathepsin (S and K) (Homo sapiens) (P25774 whole entry, looked up, one chain of several): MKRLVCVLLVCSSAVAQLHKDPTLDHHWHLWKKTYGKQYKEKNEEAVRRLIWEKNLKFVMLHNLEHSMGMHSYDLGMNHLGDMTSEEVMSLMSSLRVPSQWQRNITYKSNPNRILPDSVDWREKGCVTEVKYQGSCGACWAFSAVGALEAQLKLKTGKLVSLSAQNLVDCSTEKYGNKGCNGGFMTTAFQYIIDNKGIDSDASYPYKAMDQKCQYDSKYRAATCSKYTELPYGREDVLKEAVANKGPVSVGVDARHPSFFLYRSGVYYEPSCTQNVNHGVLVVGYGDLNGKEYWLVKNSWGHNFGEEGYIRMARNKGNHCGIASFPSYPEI
Chain of Cathepsin (H and K) (Homo sapiens) (P09668 whole entry, looked up, one chain of several): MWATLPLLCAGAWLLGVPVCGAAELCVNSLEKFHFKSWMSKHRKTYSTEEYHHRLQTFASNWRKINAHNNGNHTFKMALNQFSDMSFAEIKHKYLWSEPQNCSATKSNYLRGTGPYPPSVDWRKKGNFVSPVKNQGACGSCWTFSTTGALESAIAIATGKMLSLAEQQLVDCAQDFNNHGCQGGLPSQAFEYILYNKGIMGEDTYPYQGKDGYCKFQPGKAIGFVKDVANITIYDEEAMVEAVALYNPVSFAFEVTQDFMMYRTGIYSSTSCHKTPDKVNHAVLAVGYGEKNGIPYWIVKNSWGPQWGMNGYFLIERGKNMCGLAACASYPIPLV

In turn, `CCCC[C@H](NC(=O)OCC1(COc2ccnc(N3CCOCC3)n2)CCC1)C(=O)C(=O)N[C@H](C)c1ccccc1` yielded an IC50 at Cathepsin K of 54 nM. With `CCCC[C@H](NC(=O)OCC1(COc2ccnc(N3CCN(c4ccccc4)CC3)n2)CCC1)C(=O)C(=O)N[C@H](C)c1ccccc1`, it took 31 nM to reach half-maximal inhibition against Cathepsin K (IC50). As for `CCCC[C@H](NC(=O)OCC1(CSc2nccs2)CCC1)C(=O)C(=O)N[C@H](C)c1ccccc1`, the Selectivity in experiment [1] is 41; in experiment [2], above 720; in experiment [3], 4; in experiment [4] it was 390; in experiment [5], 250. The same compound displayed an IC50 against Cathepsin K of 17 nM. As for `CCCC[C@H](NC(=O)OCC1(Cc2nc(-c3ccccc3)cs2)CCC1)C(=O)C(=O)N[C@H](C)c1ccccc1`, the Selectivity in experiment [1] was 20; in experiment [2], above 230; in experiment [3], 22; in experiment [4], 660; in experiment [5], 220. In addition, on Cathepsin K, the IC50 is 5.5 nM.

For the compound `CCCC[C@H](NC(=O)OCC1(CSc2nccn2C)CCC1)C(=O)C(=O)N[C@H](C)c1ccccc1`, on Cathepsin K, the IC50 worked out at 61 nM. As for `CCCC[C@H](NC(=O)OCC1(CSc2nccc(-c3ccc(Cl)cc3)n2)CCC1)C(=O)C(=O)N[C@H](C)c1ccccc1`, the half-inhibitory concentration (IC50) on Cathepsin K amounted to 9.5 nM. On Cathepsin K, `CCCC[C@H](NC(=O)OCC1(COc2ncnc3ccsc23)CCC1)C(=O)C(=O)N[C@H](C)c1ccccc1` showed a 50% inhibitory concentration (IC50) of 98 nM. `CCCC[C@H](NC(=O)OCC1(CSc2nccn2-c2ccccc2)CCC1)C(=O)C(=O)N[C@H](C)c1ccccc1` yielded an IC50 against Cathepsin K of 87 nM. The same measure, in the same setting: for `CCCC[C@H](NC(=O)OCC1(COc2nccs2)CCC1)C(=O)C(=O)N[C@H](C)c1ccccc1` the value was 37 nM. `CCCC[C@H](NC(=O)OCC1(COc2ccnc(N3CCN(C)CC3)n2)CCC1)C(=O)C(=O)N[C@H](C)c1ccccc1`: half-maximal inhibition at Cathepsin K (IC50) required 54 nM. This IC50 and that of the compound before are within 1.5-fold of each other. On Cathepsin K, `CCCC[C@H](NC(=O)OCC1(CSc2ncccn2)CCC1)C(=O)C(=O)N[C@H](C)c1ccccc1` gave an IC50 of 11 nM.

In the case of `CCCC[C@H](NC(=O)OCC1(CSc2ncc(-c3ccc(Cl)cc3)n2C)CCC1)C(=O)C(=O)N[C@H](C)c1ccccc1`, on Cathepsin K, the IC50 is 230 nM.

Regarding `CCCC[C@H](NC(=O)OCC1(CCCOc2ccnc(Cl)n2)CCC1)C(=O)C(=O)N[C@H](C)c1ccccc1`, at Cathepsin K, the IC50 is above 12000 nM. Consider `CCCC[C@H](NC(=O)OCC1(COc2nc(-c3ccc(C)cc3)cs2)CCC1)C(=O)C(=O)N[C@H](C)c1ccccc1`, for which inhibition at Cathepsin K was half-maximal at 150 nM (IC50). Turning to `CCCC[C@H](NC(=O)OCC1(COc2ncccn2)CCC1)C(=O)C(=O)N[C@H](C)c1ccccc1`, the midpoint of inhibition at Cathepsin K, the IC50, lay at 260 nM. On the same count and under the same terms, in the case of `CCCC[C@H](NC(=O)OCC1(CCSc2nccn2C)CCC1)C(=O)C(=O)N[C@H](C)c1ccccc1` it was above 12000 nM.

`CCCC[C@H](NC(=O)OCC1(COc2nnc(C)cc2-c2ccccc2)CCC1)C(=O)C(=O)N[C@H](C)c1ccccc1` yielded an IC50 on Cathepsin K of 57 nM.

On Cathepsin K, `CCCC[C@H](NC(=O)OCC1(COc2ccnc(Cl)n2)CCC1)C(=O)C(=O)N[C@H](C)c1ccccc1` yielded an IC50 of 85 nM. Consider `CCCC[C@H](NC(=O)OCC1(COc2nc(-c3ccccc3)ns2)CCC1)C(=O)C(=O)N[C@H](C)c1ccccc1`, for which the IC50 at Cathepsin K was 50 nM. Turning to `CCCC[C@H](NC(=O)OCC1(CSc2nc3ccccc3o2)CCC1)C(=O)C(=O)N[C@H](C)c1ccccc1`, the IC50 on Cathepsin K is 51 nM. `CCCC[C@H](NC(=O)OCC1(CCCSc2nccn2C)CCC1)C(=O)C(=O)N[C@H](C)c1ccccc1`: the IC50 on Cathepsin K came out at 1900 nM.

By IC50 is commonly meant the concentration that inhibits the measured activity by half. High values mean a need for much substance, low ones inhibition by little substance.
